In PubChem BioAssay AID256 (DTP/NCI, 2004):
Values joined by “and” are separate entries in the source; they are usually repeats but may differ in a detail not shown here. Equal values may be shown once. Inconclusive results and toxic doses are left out. Rule for the calls: active = survival T/C of 150% or more; inactive = T/C below 125% in these data.

Test system: CD2F1 mice, L1210 leukemia ip, survival T/C
Test: NCI In Vivo Anticancer Drug Screen. Data for tumor model L1210 Leukemia (intraperitoneal) in CD2F1 (CDF1) mice
Settings: higher = longer survival
Procedure, shortened: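 Antitumor effect is scored in animals hosting a serially transplanted tumor. Values compare compound-dosed animals against vehicle-only controls as a simple quotient.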

[1] = endpoint: mean survival time, dose: 25.0 mg/kg/injection, schedule: Q04DX003 (ip), vehicle: saline with Tween-80
[2] = endpoint: mean survival time, dose: 50.0 mg/kg/injection, schedule: Q04DX003 (ip), vehicle: saline with Tween-80
[3] = endpoint: mean survival time, dose: 100.0 mg/kg/injection, schedule: Q04DX003 (ip), vehicle: saline with Tween-80
[4] = endpoint: mean survival time, dose: 200.0 mg/kg/injection, schedule: Q04DX003 (ip), vehicle: saline with Tween-80
[5] = endpoint: mean survival time, dose: 400.0 mg/kg/injection, schedule: Q04DX003 (ip), vehicle: saline with Tween-80
[6] = endpoint: mean survival time, dose: 50.0 mg/kg/injection, schedule: Q01DX009 (ip), vehicle: saline
[7] = endpoint: mean survival time, dose: 100.0 mg/kg/injection, schedule: Q01DX009 (ip), vehicle: saline
[8] = endpoint: mean survival time, dose: 200.0 mg/kg/injection, schedule: Q01DX009 (ip), vehicle: saline
[9] = endpoint: mean survival time, dose: 100.0 mg/kg/injection, schedule: Q01DX009 (ip), vehicle: other
[10] = endpoint: mean survival time, dose: 200.0 mg/kg/injection, schedule: Q01DX009 (ip), vehicle: other
[11] = endpoint: mean survival time, dose: 100.0 mg/kg/injection, schedule: Q01DX009 (ip), vehicle: saline with Tween-80
[12] = endpoint: mean survival time, dose: 200.0 mg/kg/injection, schedule: Q01DX009 (ip), vehicle: saline with Tween-80
[13] = endpoint: mean survival time, dose: 400.0 mg/kg/injection, schedule: Q01DX009 (ip), vehicle: saline with Tween-80
[14] = endpoint: mean survival time, dose: 100.0 mg/kg/injection, schedule: Q04DX003 (ip), vehicle: saline
[15] = endpoint: mean survival time, dose: 400.0 mg/kg/injection, schedule: Q04DX003 (ip), vehicle: saline

Measured: T/C

c1cc2c(c(NC3=NCCCO3)c1)CCCC2
inactive: endpoint: mean survival time, dose: 12.5 mg/kg/injection, schedule: Q04DX003 (ip), vehicle: saline with Tween-80 97 % of control | [1] 106 % of control | [2] 101 % of control

NNc1nc(=O)[nH]nc1SCc1ccccc1
inactive: endpoint: mean survival time, dose: 75.0 mg/kg/injection, schedule: Q01DX001 (ip), vehicle: saline 96 % of control | endpoint: mean survival time, dose: 150.0 mg/kg/injection, schedule: Q01DX001 (ip), vehicle: saline 88 % of control

C1CC2OC2C1 (stereo not drawn)
inactive: endpoint: mean survival time, dose: 100.0 mg/kg/injection, schedule: Q01DX009 (ip), vehicle: acetone 95 % of control | endpoint: mean survival time, dose: 200.0 mg/kg/injection, schedule: Q01DX009 (ip), vehicle: acetone 97 % of control | endpoint: mean survival time, dose: 400.0 mg/kg/injection, schedule: Q01DX009 (ip), vehicle: acetone 95 % of control

CNC(=S)NC1CCCCC1
inactive: [3] 97 % of control | [4] 100 % of control | [5] 89 % of control

CCNC(=O)C(C)Br (stereo not drawn)
inactive: endpoint: mean survival time, dose: 100.0 mg/kg/injection, schedule: Q01DX001 (ip), vehicle: saline 97 % of control | endpoint: mean survival time, dose: 200.0 mg/kg/injection, schedule: Q01DX001 (ip), vehicle: saline 106 % of control

O=C(Nc1cccc(O)c1)C1CC1
inactive: endpoint: mean survival time, dose: 100.0 mg/kg/injection, schedule: Q01DX001 (ip), vehicle: saline with Tween-80 105 % of control | endpoint: mean survival time, dose: 200.0 mg/kg/injection, schedule: Q01DX001 (ip), vehicle: saline with Tween-80 94 % of control

Cc1ccc(Cl)cc1[NH-].Cc1ccc(Cl)cc1[NH-].[Cl][Pt+2][Cl]
inactive: [1] 100 % of control | [2] 95 % of control | [3] 97 % of control | [4] 101 % of control

COCc1c(C)c(C)c(COC)c(C)c1C
inactive: [6] 95 % of control | [7] 97 % of control | [8] 88 % of control

CCN1C=C/C(=C/c2cc3scc(-c4ccccc4)[n+]3c3ccccc23)c2ccccc21
inactive: endpoint: mean survival time, dose: 0.01 mg/kg/injection, schedule: Q01DX009 (ip), vehicle: saline 97 % of control | endpoint: mean survival time, dose: 0.02 mg/kg/injection, schedule: Q01DX009 (ip), vehicle: saline 100 % of control | endpoint: mean survival time, dose: 0.04 mg/kg/injection, schedule: Q01DX009 (ip), vehicle: saline 103 % of control

COc1ccc(CC(C)NC(=O)c2ccc(OC)c(OC)c2)cc1OC (stereo not drawn)
inactive: endpoint: mean survival time, dose: 12.5 mg/kg/injection, schedule: Q01DX009 (ip), vehicle: other 105 % of control | endpoint: mean survival time, dose: 25.0 mg/kg/injection, schedule: Q01DX009 (ip), vehicle: other 94 % of control | endpoint: mean survival time, dose: 50.0 mg/kg/injection, schedule: Q01DX009 (ip), vehicle: other 96 % of control | [9] 93 % of control | [10] 94 % of control

COC(=O)[C@]1(C)CCC[C@]2(C)[C@H]3CC4OO[C@@]3(CC[C@H]21)[C@H]1O[C@@]41C(C)C
inactive: [11] 97 % of control | endpoint: mean survival time, dose: 125.0 mg/kg/injection, schedule: Q01DX009 (ip), vehicle: Klucel (hydroxypropylcellulose) (HPC) 96 % of control | [12] 101 % of control | endpoint: mean survival time, dose: 250.0 mg/kg/injection, schedule: Q01DX009 (ip), vehicle: Klucel (hydroxypropylcellulose) (HPC) 96 % of control | [13] 98 % of control | endpoint: mean survival time, dose: 500.0 mg/kg/injection, schedule: Q01DX009 (ip), vehicle: Klucel (hydroxypropylcellulose) (HPC) 97 % of control

CC(=O)N1C2=CCCC3CCCCC23c2ccccc21 (stereo not drawn)
inactive: [11] 103 % of control | [3] 96 % of control | [12] 101 % of control | [4] 92 % of control | [13] 98 % of control | [5] 101 % of control

CCOC1NC(=O)Oc2ccccc21 (stereo not drawn)
inactive: endpoint: median survival time, dose: 50.0 mg/kg/injection, schedule: Q01DX005 (ip), vehicle: Klucel (hydroxypropylcellulose) (HPC) 100 % of control | endpoint: median survival time, dose: 100.0 mg/kg/injection, schedule: Q01DX005 (ip), vehicle: Klucel (hydroxypropylcellulose) (HPC) 95 % of control | endpoint: median survival time, dose: 200.0 mg/kg/injection, schedule: Q01DX005 (ip), vehicle: Klucel (hydroxypropylcellulose) (HPC) 108 % of control

O=C(O)c1cc(C(=O)O)c(C(=O)O)cc1C(=O)O.[NH-]C1CCCC1.[NH-]C1CCCC1.[NH-]C1CCCC1.[NH-]C1CCCC1.[Pt+2].[Pt+2]
inactive: endpoint: mean survival time, dose: 3.12 mg/kg/injection, schedule: Q04DX003 (ip), vehicle: distilled water + Tween-80 103 % of control | endpoint: mean survival time, dose: 6.25 mg/kg/injection, schedule: Q04DX003 (ip), vehicle: distilled water + Tween-80 107 % of control | endpoint: mean survival time, dose: 12.5 mg/kg/injection, schedule: Q04DX003 (ip), vehicle: distilled water + Tween-80 108 % of control | endpoint: mean survival time, dose: 25.0 mg/kg/injection, schedule: Q04DX003 (ip), vehicle: distilled water + Tween-80 111 % of control | endpoint: mean survival time, dose: 50.0 mg/kg/injection, schedule: Q04DX003 (ip), vehicle: distilled water + Tween-80 108 % of control | endpoint: mean survival time, dose: 100.0 mg/kg/injection, schedule: Q04DX003 (ip), vehicle: distilled water + Tween-80 113 % of control | endpoint: mean survival time, dose: 200.0 mg/kg/injection, schedule: Q04DX003 (ip), vehicle: distilled water + Tween-80 124 % of control

CC1C=CCC2C(=O)OC(=O)C12 (stereo not drawn)
inactive: [14] 94 % of control | endpoint: mean survival time, dose: 200.0 mg/kg/injection, schedule: Q04DX003 (ip), vehicle: saline 95 % of control | [15] 101 % of control

CCOC(=S)S
inactive: endpoint: mean survival time, dose: 100.0 mg/kg/injection, schedule: Q01DX009 (ip), vehicle: saline sonified 103 % of control | [14] 96 % of control | endpoint: mean survival time, dose: 200.0 mg/kg/injection, schedule: Q01DX009 (ip), vehicle: saline sonified 97 % of control | [15] 104 % of control

OC(Cc1[nH]c2ccccc2c1C(O)(C(F)(F)F)C(F)(F)F)(C(F)(F)F)C(F)(F)F
inactive: [9] 101 % of control | [10] 110 % of control | endpoint: mean survival time, dose: 400.0 mg/kg/injection, schedule: Q01DX009 (ip), vehicle: other 94 % of control

O=C(O)c1cccc2c1C(=O)c1ccccc1C2=O
inactive: endpoint: mean survival time, dose: 100.0 mg/kg/injection, schedule: Q04DX003 (ip), vehicle: Klucel (hydroxypropylcellulose) (HPC) 117 % of control | endpoint: mean survival time, dose: 200.0 mg/kg/injection, schedule: Q04DX003 (ip), vehicle: Klucel (hydroxypropylcellulose) (HPC) 101 % of control | endpoint: mean survival time, dose: 400.0 mg/kg/injection, schedule: Q04DX003 (ip), vehicle: Klucel (hydroxypropylcellulose) (HPC) 109 % of control

CC1(C)N=C(N)N=C(N)N1c1ccc(OCC(=O)Nc2ccc(S(=O)(=O)F)cc2)cc1
inactive: [6] 111 % of control | [7] 109 % of control | [8] 115 % of control | endpoint: mean survival time, dose: 300.0 mg/kg/injection, schedule: Q01DX009 (ip), vehicle: saline 115 % of control | endpoint: mean survival time, dose: 400.0 mg/kg/injection, schedule: Q01DX009 (ip), vehicle: saline 121 % of control

COc1cc2c(cc1OC)-c1ccc3cc4c(cc3c1N(C)C2)OCO4
inactive: endpoint: mean survival time, dose: 5.0 mg/kg/injection, schedule: Q01DX009 (ip), vehicle: water 106 % of control | endpoint: mean survival time, dose: 10.0 mg/kg/injection, schedule: Q01DX009 (ip), vehicle: water 105 % of control | endpoint: mean survival time, dose: 20.0 mg/kg/injection, schedule: Q01DX009 (ip), vehicle: water 105 % of control | endpoint: mean survival time, dose: 40.0 mg/kg/injection, schedule: Q01DX009 (ip), vehicle: water 108 % of control | endpoint: mean survival time, dose: 80.0 mg/kg/injection, schedule: Q01DX009 (ip), vehicle: water 103 % of control

[Cl][Pt+2][Cl].[NH-]c1cc2ccccc2cc1[NH-]
inactive: endpoint: mean survival time, dose: 2.5 mg/kg/injection, schedule: Q01DX009 (ip), vehicle: saline with Tween-80 102 % of control | endpoint: mean survival time, dose: 5.0 mg/kg/injection, schedule: Q01DX009 (ip), vehicle: saline with Tween-80 109 % of control | endpoint: mean survival time, dose: 10.0 mg/kg/injection, schedule: Q01DX009 (ip), vehicle: saline with Tween-80 109 % of control | endpoint: mean survival time, dose: 20.0 mg/kg/injection, schedule: Q01DX009 (ip), vehicle: saline with Tween-80 100 % of control and 112 % of control | endpoint: mean survival time, dose: 40.0 mg/kg/injection, schedule: Q01DX009 (ip), vehicle: saline with Tween-80 105 % of control and 111 % of control | endpoint: mean survival time, dose: 80.0 mg/kg/injection, schedule: Q01DX009 (ip), vehicle: saline with Tween-80 105 % of control | endpoint: mean survival time, dose: 160.0 mg/kg/injection, schedule: Q01DX009 (ip), vehicle: saline with Tween-80 106 % of control | endpoint: mean survival time, dose: 320.0 mg/kg/injection, schedule: Q01DX009 (ip), vehicle: saline with Tween-80 111 % of control
